One may read the IC50 as the concentration needed to halve the response being measured. Read a low IC50 as greater potency.

The source made the active and inactive calls. The calls are words filed in the database; no cut-off is given here.

The values that follow come from ChEMBL document CHEMBL3045940, “In vivo peritoneal antiangiogenesis and in vitro antiproliferative properties of some bischalcone derivatives” (Med Chem Res, 2012).

Assay [1] deals with Mus musculus. Briefly: Antiangiogenic activity in EAT cells xenografted in Mus musculus Swiss albino (mouse) assessed as reduction in vasculaization in peritoneal cavity drug administered on day 7,9 and 11 after tumor transplantation. The format is functional, organism-based.
Assay [2] can be described thus: Antitumor activity against Mus musculus (mouse) EAT cells xenografted in Mus musculus Swiss albino (mouse) assessed as reduction in ascites volume drug administered on day 7,9 and 11 after tumor transplantation […]. The format is functional.
The subject of assay [3] is EAT. Briefly: Antitumor activity against Mus musculus (mouse) EAT cells xenografted in Mus musculus Swiss albino (mouse) assessed as decrease in tumor burden measured as reduction in body weight drug administered on day 7,9 and 11 after tumor transplantation. Format: functional, cell-based.
The subject of assay [4] is EAT. Briefly: Antitumor activity against Mus musculus (mouse) EAT cells xenografted in Mus musculus Swiss albino (mouse) assessed as decrease in cell viability drug administered on day 7,9 and 11 after tumor transplantation. Format: functional, cell-based.
Assay [5] relates to HepG2. Briefly: Induction of apoptosis in Homo sapiens (human) HepG2 cells assessed as DNA fragmentation at 10 uM after 24 hr by agarose gel electrophoresis. Format: functional, cell-based.
The subject of assay [6] is EAT. Kind of assay: Induction of apoptosis in Mus musculus (mouse) EAT cells xenografted in Mus musculus Swiss albino (mouse) assessed as DNA fragmentation drug administered on day 7,9 and 11 after tumor transplantation by agarose gel electrophoresis. Format: functional, cell-based.
Assay [7] deals with EAT. Kind of assay: Induction of apoptosis in Mus musculus (mouse) EAT cells xenografted in Mus musculus Swiss albino (mouse) assessed as appearance of condensed nuclei, membrane blebbing and formation of apoptotic bodies drug administered on day 7,9 and 11 after tumor transplantation by Giemsa, ethidium bromide/acridine orange staining analysis. The format is functional, cell-based.

The subject of assay [8] is HepG2. Briefly: Antiproliferative activity against Homo sapiens (human) HepG2 cells after 48 hr by MTT assay. Format: functional, cell-based. As to conditions: HepG2, 48 h. On the technique in general: Tetrazolium dyes change colour on reduction, which living cells bring about.
For assay [9], the system named is HeLa. Kind of assay: Antiproliferative activity against Homo sapiens (human) HeLa cells after 48 hr by MTT assay. Format: functional, cell-based.

In the case of `COc1cc(/C=C2\CC/C(=C\c3ccc(O)c(OC)c3)C2=O)ccc1O`, the inhibition entry in assay [1], in [3] and in assay [4] was “Active” throughout. For the same molecule, in assay [2], the “inhibition (INH)” value is 70%. The outcome in assay [5], in [6] and in assay [7] was Active. For the same molecule, the IC50 was found to be 44 µM in assay [8] and 42 µM in assay [9].
For the molecule `O=C1/C(=C/c2ccc(F)cc2)CC/C1=C\c1ccc(F)cc1`, the inhibition result in assay [1], in [3] and in assay [4] was “Active” each time. The “inhibition (INH)” value in [2] is reported as 70%. Moreover, the outcome in assay [5], in assay [6] and in [7] was Active. Besides, the IC50 in assay [8] was 48 µM; in assay [9] it was 39 µM.
Turning to `COc1ccc(/C=C2\CC/C(=C\c3ccc(OC)c(OC)c3)C2=O)cc1OC`, the inhibition entry in assay [1], in assay [3] and in assay [4] was “Active” in each case. The “inhibition (INH)” value in assay [2] turned out to be 70%. Further, the result in [5], in [6] and in assay [7] was Active. Further, the values for the IC50 in assay [8] and in assay [9] were 106 µM and 110 µM, respectively.
